Data published in US11161815B2, “Hydrocarbylsulfonyl-substituted pyridines and their use in the treatment of cancer” (Oblique Therapeutics AB, priority 2017, dated 2021).
pIC50: −log10 of the molar value.

System: MDA-MB-231
Assay: Cancer cell viability assay (MTT), MDA-MB-231
Format: cell-based
Settings: Homo sapiens, 72 hrs, 10% FBS media
Protocol: (§1) Breast cancer and glioblastoma cell lines were plated 4000 cells/well in 96-well plates in the presence of 10% FBS media. The following day cells were treated with various concentrations of the example compounds (0.1% DMSO final) and incubated for 72 hrs. After the incubation An MTT assay was performed to access cell viability. Percent of viability was determined using DMSO vehicle and no cell (blank) controls.

Row | pIC50 | SMILES
1 | 5.85 | COc1ccc([N+](=O)[O-])c([S+]([O-])Cc2ccccc2)n1 (stereo not shown) [Example 32, 2-benzylsulfinyl-6-methoxy-3-nitro-pyridine]
2 | 5.29 | CCS(=O)(=O)c1nc(OC)ccc1[N+](=O)[O-] [Example 10, 2-(ethylsulfonyl)-6-methoxy-3-nitropyridine]

Target: gluthathione reductase (GR) (Homo sapiens (Human), UniProt P00390)
Sequence (P00390 44-522): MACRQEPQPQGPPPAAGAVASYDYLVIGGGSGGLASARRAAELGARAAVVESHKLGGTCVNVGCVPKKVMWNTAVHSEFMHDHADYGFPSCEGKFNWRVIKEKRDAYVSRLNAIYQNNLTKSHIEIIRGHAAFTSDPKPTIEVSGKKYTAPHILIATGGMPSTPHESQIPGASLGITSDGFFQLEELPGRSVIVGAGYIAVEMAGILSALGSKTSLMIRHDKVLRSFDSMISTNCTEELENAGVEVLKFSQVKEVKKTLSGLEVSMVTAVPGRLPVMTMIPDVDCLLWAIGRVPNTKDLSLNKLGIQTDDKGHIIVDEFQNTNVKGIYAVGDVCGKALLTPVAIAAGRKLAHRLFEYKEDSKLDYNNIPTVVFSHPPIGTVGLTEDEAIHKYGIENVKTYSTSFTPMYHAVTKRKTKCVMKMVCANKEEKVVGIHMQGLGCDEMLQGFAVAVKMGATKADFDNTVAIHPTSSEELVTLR
Assay: Inhibition of recombinant GR (GSSG assay)
Format: biochemical
Settings: 2 nM GR, 250 μM NADPH, 15 minutes incubation
Protocol: (§2) Small molecule inhibition of recombinant thioredoxin reductase 1 (TrxR1) and gluthathione reductase (GR) was examined in 96-well plate format. 30 nM TrxR1 was incubated in the presence of 250 μM NADPH, 0.1 mg/ml BSA, and various concentrations of compound (1% DMSO final) in 50 mM Tris (pH 7.5) and 2 mM EDTA buffer for 15 minutes. Following the incubation period, 2 mM DTNB was added to each well and the change in O.D. at 412 nm was followed. Percent activity was determined using DMSO vehicle and no TrxR1 (blank) controls. 2 nM GR was incubated in the presence of 250 μM NADPH, 0.1 mg/ml BSA, and various concentrations of compounds (1% DMSO final) in 50 mM Tris (pH 7.5) and 2 mM EDTA buffer for 15 minutes. Following the incubation period, 1 mM GSSG was added to each well and the change in O.D. at 340 nm was followed. Percent activity was determined using DMSO vehicle and no GR (blank) controls.

Row | pIC50 | SMILES
3 | < 4.00 | COc1ccc([N+](=O)[O-])c(S(=O)(=O)CCc2cnccn2)n1 [Example 30, 2-(2-((6-methoxy-3-nitropyridin-2-yl)sulfonyl)ethyl)pyrazine]
4 | < 4.00 | COc1ccc(CS(=O)(=O)c2nc(OC)ccc2[N+](=O)[O-])cc1 [Example 24, 6-methoxy-2-((4-methoxybenzyl)sulfonyl)-3-nitropyridine]
5 | < 4.00 | COc1ccc([N+](=O)[O-])c(S(=O)(=O)CCc2ccccc2)n1 [Example 26, 6-methoxy-3-nitro-2-(phenethylsulfonyl)pyridine]
6 | < 4.00 | COc1ccc([N+](=O)[O-])c(S(=O)(=O)Cc2ccc(Cl)cc2)n1 [Example 21, 2-((4-chlorobenzyl)sulfonyl)-6-methoxy-3-nitropyridine]
7 | < 4.00 | CCCCCCS(=O)(=O)c1nc(OC)ccc1[N+](=O)[O-] [Example 3, 2-Hexylsulfonyl-6-methoxy-3-nitropyridine]
8 | < 4.00 | COc1ccc([N+](=O)[O-])c(S(=O)(=O)CCCc2ccccc2)n1 [Example 27, 6-methoxy-3-nitro-2-((3-phenylpropyl)sulfonyl)pyridine]
9 | < 4.00 | CCS(=O)(=O)c1nc(OC)ccc1[N+](=O)[O-] [Example 10, 2-(ethylsulfonyl)-6-methoxy-3-nitropyridine]

System: U-87 MG
Assay: Cancer cell viability assay (MTT), U-87 MG
Format: cell-based
Settings: Homo sapiens, 72 hrs, 10% FBS media
Protocol: as §1

Row | pIC50 | SMILES
10 | 5.61 | COc1ccc([N+](=O)[O-])c([S+]([O-])Cc2ccccc2)n1 (stereo not shown) [Example 32, 2-benzylsulfinyl-6-methoxy-3-nitro-pyridine]
11 | 5.23 | CCS(=O)(=O)c1nc(OC)ccc1[N+](=O)[O-] [Example 10, 2-(ethylsulfonyl)-6-methoxy-3-nitropyridine]

System: FaDu cells
Assay: Head and neck cancer cell viability assay (Cell-Quanti Blue)
Format: cell-based
Settings: Homo sapiens, 72 hrs, 10% FBS media containing 25 nM selenite
Protocol: (§3) FaDu cells were plated 2000 cells/well in 96-well black optical plates in the presence of 10% FBS media containing 25 nM selenite. The following day cells were treated with various concentrations of the compound of Example 1 (0.1% DMSO final) and incubated for 72 hrs. After the incubation Cell-Quanti Blue reagent was added to each well and incubated for additional 3 hrs. Fluorescence was read ex:530 nm/em:590 nm, and percent of viability was determined using DMSO vehicle and no cell (blank) controls.

Row | pIC50 | SMILES
12 | 6.35 | CCCCCCS(=O)(=O)c1nc(OC)ccc1[N+](=O)[O-] [Example 3, 2-Hexylsulfonyl-6-methoxy-3-nitropyridine]

Target: recombinant thioredoxin reductase 1 (TrxR1) (Homo sapiens (Human), UniProt Q16881)
Sequence (Q16881 151-649): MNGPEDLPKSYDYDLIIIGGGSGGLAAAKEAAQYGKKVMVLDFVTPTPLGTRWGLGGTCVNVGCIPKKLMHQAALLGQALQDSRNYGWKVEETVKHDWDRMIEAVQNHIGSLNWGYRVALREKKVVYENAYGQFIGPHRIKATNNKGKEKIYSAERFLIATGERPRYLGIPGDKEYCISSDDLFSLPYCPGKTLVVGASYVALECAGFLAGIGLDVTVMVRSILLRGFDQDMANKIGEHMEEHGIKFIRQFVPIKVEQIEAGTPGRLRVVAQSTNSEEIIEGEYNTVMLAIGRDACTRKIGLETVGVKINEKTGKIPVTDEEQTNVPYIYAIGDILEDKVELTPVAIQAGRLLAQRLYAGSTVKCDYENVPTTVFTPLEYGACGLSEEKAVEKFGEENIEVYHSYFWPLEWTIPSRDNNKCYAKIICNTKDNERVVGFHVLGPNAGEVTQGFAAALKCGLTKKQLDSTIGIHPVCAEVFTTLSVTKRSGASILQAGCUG
Assay: Inhibition of recombinant TrxR1 (DTNB assay)
Format: biochemical
Settings: 30 nM TrxR1, 250 μM NADPH, 15 minutes incubation, read-out: TrxR Assay IC50
Protocol: as §2

Row | pIC50 | SMILES
13 | 7.17 | COc1ccc([N+](=O)[O-])c(S(=O)(=O)CCc2cnccn2)n1 [Example 30, 2-(2-((6-methoxy-3-nitropyridin-2-yl)sulfonyl)ethyl)pyrazine]
14 | 7.60 | COc1ccc(CS(=O)(=O)c2nc(OC)ccc2[N+](=O)[O-])cc1 [Example 24, 6-methoxy-2-((4-methoxybenzyl)sulfonyl)-3-nitropyridine]
15 | 7.73 | COc1ccc([N+](=O)[O-])c(S(=O)(=O)CCc2ccccc2)n1 [Example 26, 6-methoxy-3-nitro-2-(phenethylsulfonyl)pyridine]
16 | 8.36 | COc1ccc([N+](=O)[O-])c(S(=O)(=O)Cc2ccc(Cl)cc2)n1 [Example 21, 2-((4-chlorobenzyl)sulfonyl)-6-methoxy-3-nitropyridine]
17 | 6.31 | CCCCCCS(=O)(=O)c1nc(OC)ccc1[N+](=O)[O-] [Example 3, 2-Hexylsulfonyl-6-methoxy-3-nitropyridine]
18 | 8.13 | COc1ccc([N+](=O)[O-])c(S(=O)(=O)CCCc2ccccc2)n1 [Example 27, 6-methoxy-3-nitro-2-((3-phenylpropyl)sulfonyl)pyridine]
19 | 7.12 | COc1ccc([N+](=O)[O-])c([S+]([O-])Cc2ccccc2)n1 (stereo not shown) [Example 32, 2-benzylsulfinyl-6-methoxy-3-nitro-pyridine]
20 | 6.91 | CCS(=O)(=O)c1nc(OC)ccc1[N+](=O)[O-] [Example 10, 2-(ethylsulfonyl)-6-methoxy-3-nitropyridine]

System: MDA-MB-468
Assay: Cancer cell viability assay (MTT), MDA-MB-468
Format: cell-based
Settings: Homo sapiens, 72 hrs, 10% FBS media
Protocol: as §1

Row | pIC50 | SMILES
21 | 6.19 | COc1ccc([N+](=O)[O-])c([S+]([O-])Cc2ccccc2)n1 (stereo not shown) [Example 32, 2-benzylsulfinyl-6-methoxy-3-nitro-pyridine]
22 | 5.50 | CCS(=O)(=O)c1nc(OC)ccc1[N+](=O)[O-] [Example 10, 2-(ethylsulfonyl)-6-methoxy-3-nitropyridine]

System: MDA-MB-231 cells
Assay: Breast cancer cell viability assay (Alamar Blue)
Format: cell-based
Settings: Homo sapiens, 72 hrs, 10% FBS media containing 25 nM selenite
Protocol: as §3, with “MDA-MB-231” for “FaDu”, “compounds” for “the compound of Example 1”, “Alamar” for “Cell-Quanti”

Row | pIC50 | SMILES
23 | 5.58 | COc1ccc([N+](=O)[O-])c(S(=O)(=O)CCc2cnccn2)n1 [Example 30, 2-(2-((6-methoxy-3-nitropyridin-2-yl)sulfonyl)ethyl)pyrazine]
24 | 5.46 | COc1ccc(CS(=O)(=O)c2nc(OC)ccc2[N+](=O)[O-])cc1 [Example 24, 6-methoxy-2-((4-methoxybenzyl)sulfonyl)-3-nitropyridine]
25 | 5.28 | COc1ccc([N+](=O)[O-])c(S(=O)(=O)CCc2ccccc2)n1 [Example 26, 6-methoxy-3-nitro-2-(phenethylsulfonyl)pyridine]
26 | 5.39 | COc1ccc([N+](=O)[O-])c(S(=O)(=O)Cc2ccc(Cl)cc2)n1 [Example 21, 2-((4-chlorobenzyl)sulfonyl)-6-methoxy-3-nitropyridine]
27 | 5.15 | COc1ccc([N+](=O)[O-])c(S(=O)(=O)CCCc2ccccc2)n1 [Example 27, 6-methoxy-3-nitro-2-((3-phenylpropyl)sulfonyl)pyridine]
28 | 5.53 | CCS(=O)(=O)c1nc(OC)ccc1[N+](=O)[O-] [Example 10, 2-(ethylsulfonyl)-6-methoxy-3-nitropyridine]
